Experimental data: patent US8796339B2, “Compositions comprising benzyl alcohol derivatives and further antimicrobial active compounds” (Symrise AG, priority 2008, dated 2014)

System: Aspergillus niger ATCC 16404
Test: Testing for adequate preservation (European Pharmacopoeia 5.1.3 preservative stress test) of inoculated cosmetic emulsions
Type: cell-based
Settings: for cfu/ml at 0 days / cfu/ml at 2 days / cfu/ml at 7 days / cfu/ml at 14 days: 4-methylbenzyl alcohol 0.4%; for cfu/ml at 0 days / Aspergillus niger germ count at 0 days (initial, "0 value"): day 0; for cfu/ml at 2 days / Aspergillus niger germ count at 2 days: day 2; for cfu/ml at 7 days / Aspergillus niger germ count at 7 days: day 7; for Aspergillus niger germ count at 0 days (initial, "0 value") / Aspergillus niger germ count at 2 days / Aspergillus niger germ count at 7 days: 1.0% product in O/W emulsion pH 5.5, B=1.0% 4-methylbenzyl alcohol; for cfu/ml at 14 days: day 14
Procedure: Testing for adequate preservation was carried out in accordance with the European Pharmacopoeia. Testing thus comprises contamination of the formulation, if possible in its final condition, with a prescribed inoculum of suitable microorganisms, storage of the inoculated formulation at a certain temperature, removal of samples from the container at certain intervals of time and determination of the number of microorganisms in the samples removed in this way. The preserving properties are adequate if, under the conditions of the test, a clear reduction or, where appropriate, no increase in the germ count results in the inoculated formulations after the prescribed times at the prescribed temperatures. Experimental details of the test procedure are described in the European Pharmacopoeia (ISBN 3-7692-2768-9; Supplement 2001 to the 3rd Edition, page 421-422, chapter 5.1.3). E: Aspergillus niger ATCC 16404 The initial germ count (cfu/ml; “0 value”) was in the range of from 230000 to 400000 in the various test series. For the tests for adequate preservation, a defined amount of the active compound combination according to the invention (product C) was incorporated into an O/W emulsion. For comparison purposes, the comparison products (product A and B) were incorporated into separate O/W emulsions. […] Phenonip® is a commercially available (Clariant, Nipa preservatives) and in cosmetic formulations widely used antimicrobial active mixture consisting of phenoxyethanol, methylparaben, ethylparaben, butylparaben, propylparaben and isobutylparaben. Testing for adequate preservation was carried out in accordance with the European Pharmacopoeia, as explained in Example 1a. The initial germ count (cfu/ml; “0 value”) was in the range of from 200,000 to 400,000 in the various test series.

[1] = Example 3, Table 9, dosage: 1,2-decanediol 1.0%, mixture 0.5% (title; listed as prints 1.5%)+0.2%
[2] = Example 3, Table 8, dosage: 1,2-hexanediol 3.0%, mixture 1.5%+0.2%
[3] = Example 1a, A=0.5% 1,2-hexanediol+0.5% 1,2-octanediol, C=0.4%+0.4%+0.2%
[4] = Example 1b, A=0.25% 1,2-hexanediol+0.75% 1,2-octanediol, C=0.2%+0.6%+0.2%
[5] = Example 2, A=1.0% 1,2-octanediol, C=0.8% 1,2-octanediol+0.2% 4-methylbenzyl alcohol
[6] = Example 3, Table 7, dosage: 1,2-pentanediol 4.0%, mixture 2.0%+0.2%

SMILES | cfu/ml at 0 days [1] [cfu/ml] | cfu/ml at 2 days [1] [cfu/ml] | cfu/ml at 7 days [1] [cfu/ml] | cfu/ml at 0 days [2] [cfu/ml] | cfu/ml at 2 days [2] [cfu/ml] | cfu/ml at 7 days [2] [cfu/ml] | Aspergillus niger germ count at 0 days (initial, "0 value") [3] [cfu/ml] | Aspergillus niger germ count at 2 days [3] [cfu/ml] | Aspergillus niger germ count at 7 days [3] [cfu/ml] | Aspergillus niger germ count at 0 days (initial, "0 value") [4] [cfu/ml] | Aspergillus niger germ count at 2 days [4] [cfu/ml] | Aspergillus niger germ count at 7 days [4] [cfu/ml] | Aspergillus niger germ count at 0 days (initial, "0 value") [5] [cfu/ml] | Aspergillus niger germ count at 2 days [5] [cfu/ml] | Aspergillus niger germ count at 7 days [5] [cfu/ml] | cfu/ml at 0 days [6] [cfu/ml] | cfu/ml at 2 days [6] [cfu/ml] | cfu/ml at 7 days [6] [cfu/ml] | cfu/ml at 14 days [6] [cfu/ml]
CCCCCCCCC(O)CO (centres unmarked) [1,2-Decanediol, reference compound] | 250000 | 208000 | 302000 | – | – | – | – | – | – | – | – | – | – | – | – | – | – | – | –
CCCCC(O)CO (centres unmarked) [1,2-Hexanediol, reference compound] | – | – | – | 250000 | 212000 | 132000 | – | – | – | – | – | – | – | – | – | – | – | – | –
Cc1ccc(CO)cc1 [4-Methylbenzyl alcohol, 4-methylbenzyl alcohol] | 250000 | 208000 | 302000 | 250000 | 208000 | 302000 | 320000 | 302000 | 167000 | 320000 | 302000 | 167000 | 320000 | 302000 | 167000 | 250000 | 208000 | 302000 | 132000
CCCC(O)CO (centres unmarked) [1,2-Pentanediol, reference compound] | – | – | – | – | – | – | – | – | – | – | – | – | – | – | – | 250000 | 246000 | 265000 | 246000
